Measurements as given in PMC7404270, “Biological Activities of Cyclic and Acyclic B-Type Laxaphycins in SH-SY5Y Human Neuroblastoma Cells” (Marine Drugs, 2020).
Starred links: 1 amine or outer side, 2 acyl side, 3 side chain; linkers in the order of their positions; H or OH if unused. Non-standard residues stand in square brackets, D forms with d. Residues, ends and D or L forms follow the SMILES beside them. dβ3hGly(nHeptyl) = CCCCCCC[C@H](CC(=O)[*:2])N[*:1]; dAsn(3R-OH) = NC(=O)[C@H](O)[C@@H](N)C(=O)O; dLeu(3S-OH) = CC(C)[C@H](O)[C@@H](N)C(=O)O; Hyp = O=C(O)[C@@H]1C[C@@H](O)CN1; NMeI = CC[C@H](C)[C@H](NC)C(=O)O

What was measured:
[1] = system: SH-SY5Y human neuroblastoma cells; assay: MTT cell metabolic activity assay; assay type: cell-based; settings: 24 h, 0.001–10 µM, absorbance 595 nm, three experiments in triplicate
Method: (§1) SH-SY5Y human neuroblastoma cell line was obtained from American Type Culture Collection (ATCC), number CRL2266. Cells were cultured in Dulbecco´s modified Eagle´s medium: Nutrient Mix F-12 (DMEM/F-12) with 10% fetal bovine serum (FBS), 1% glutamax, 100 U/mL penicillin and 100 µg/mL streptomycin. Cells were maintained at 37 °C in a humidified atmosphere of 5% CO2 and 95% air and dissociated weekly using 0.05% trypsin/EDTA. All the reagents were obtained from Thermo Fischer Scientific.
The effect of laxaphycins on cell metabolic activity was evaluated by MTT (3-(4, 5-dimethyl thiazol-2-yl)-2, 5-diphenyl tetrazolium bromide) assay. SH-SY5Y cells were cultured in 96-well plates and treated with compounds at concentrations ranging from 0.001 to 10 µM for 24 h. Next, cells were rinsed three times and incubated for 1 h with MTT (500 µg/mL) dissolved in saline buffer. MTT excess was washed and cells were disaggregated with 5% sodium dodecyl sulfate. Absorbance of the colored formazan salt was measured at 595 nm in a spectrophotometer plate reader. Cell death control signal was subtracted from the other data.

mTOR = assay: Western blot, mTOR activation (phosphorylated/total); assay type: cell-based, human; settings: SH-SY5Y cells, 24 h; Rap 0.1 µM
Method: (§2) SH-SY5Y cells were seeded in 12-well plates and treated with laxaphycins for 24 h. Next, cells were washed with PBS and lysis buffer (50mM Tris HCl, 150 mM NaCl, 1mM EDTA and 1% Triton x-100, supplemented with a complete phosphatase/protease inhibitor cocktail) was added to each well. Cells were scrapped, sonicated and centrifuged at 13,000 rpm at 4 °C for 20 min.
(§3) In both cases, the supernatant was collected as the cytosolic fraction and quantified with the Bradford method. Samples containing 15 µg were used for electrophoresis, resolved in 4–20% sodium dodecyl sulphate polyacrylamide gel (Biorad, Madrid, Spain). Proteins were transferred to PVDF membranes (Merck Millipore) with a Trans-Blot® semi-dry transfer cell (Biorad). Membrane blocking and antibody incubation was performed in Snap i.d. system (Merck Millipore). Protein bands were detected with Supersignal West Pico Luminiscent Substrate and Supersignal West Femto Maximum Sensitivity Substrate (Thermo Fisher Scientific). Chemiluminiscence was determined with Diversity GeneSnap system and software (Syngene). LC3 II/I was detected with the primary antibody anti-LC3 II/I (1:1000, Abcam), the primary antibody anti-pmTOR (Ser2448) (1:1000, Merck Millipore) was used to recognize phospho-mTOR and the total levels of the kinase were determined with anti-mTOR antibody (1:10000, Abcam), beclin-1 was detected with anti-beclin-1 primary antibody (1:1000, Merck Millipore), p62 was quantified with anti-p62 antibody (1:1000, Merck Millipore), anti-phospho-p70 S6 kinase (Thr389) (1:1000, Merck Millipore) was used to detect phospho- p70 and the total levels were quantified using anti-p70 S6 kinase antibody (1:1000, Merck Millipore), anti-phospho-AMPK (Thr172) (1:500, Merck Millipore) was used to recognize the phosphorylated state of the kinase, and the total expression of the enzyme was detected with anti-AMPK antibody (1:500, Merck Millipore). Protein levels were normalized using β-Actin (1:20,000, Millipore). Baf A1 (0.001 µM), Rap (0.1 µM) and Comp C (1 µM) were used as controls for autophagic flux measurements. […]

[2] = system: panel of cancer cell lines; settings: read-out: IC50, cytotoxic effects against a panel of cancer cell lines; previous works; cited from earlier work
Source text: (§4) Moreover, this study is the first description of the effects on mitochondria and autophagy produced by acyclic B-type laxaphycins, and also confirms that the toxic effects of cyclic laxaphycins B are mediated by an apoptotic process. […] Our results in neuroblastoma cells are in ag ...

caspase 3 = assay: Caspase 3 activity in cell lysates (EnzCheck kit); assay type: cell-based, human; settings: SH-SY5Y cells, 24 h; 1 at 0.3 µM, 2 at 0.15 µM
Method: The detection of caspase 3 activity was carried out with the EnzCheck® Caspase-3 Assay Kit. Neuroblastoma cells were cultured in 12-well plates at 1 × 10^6 cells per well and treated with compounds. After 24 h, cells were lysed and an aliquot was collected to quantify protein concentration by the Bradford method. Then, the assay was performed following manufacturer’s instructions. Briefly, 50 µL of each sample were mixed with equal volume of Z-DEVD-AMC substrate and incubated for 30 min at room temperature. Then, fluorescence at 342 nm excitation and 441 nm emission was measured. Caspase 3 activity data were corrected by protein concentration values. STS (0.01 µM) was used as positive control.

[3] = system: drug-sensitive and multidrug-resistant tumor cell lines; design: method as in PMID 17323939; settings: previous works; read-out: IC50, toxicity towards drug-sensitive and multidrug-resistant tumor cell lines; cited from earlier work
Source text: as §4

[4] = system: SH-SY5Y human neuroblastoma cells; assay: Annexin V-FITC / propidium iodide flow cytometry; assay type: cell-based; settings: 24 h, 1 at 0.3 µM; for Cell survival (flow cytometry): 2 at 0.15 µM (MTT IC50 values); for Apoptotic cells (early and late, Annexin V positive): 2 at 0.15 µM, STS at 0.01 µM, percentage of total cells, mean ± SEM of three experiments
Method: The Annexin V-FITC Apoptosis Detection Kit was used to determine the cell death produced by compounds as previously described. SH-SY5Y cells were seeded in 12-well plates at 1 × 10^6 per well and incubated for 24 h with laxaphycins. Then, cells were washed with PBS and resuspended in Annexin binding buffer containing Annexin V-FITC and PI. Cells were incubated for 15 min at room temperature, resuspended in PBS and filtered. The fluorescence was determined by flow cytometry using the ImageStreamMKII (Amnis Corporation, Luminex Corp, Austin, TX, USA). 10,000 events were analyzed with IDEAS Application 6.0 software (Amnis Corporation, Luminex Corp, Austin, TX, USA). STS (Sigma Aldrich) at 0.01 µM was used as control in this assay.

[5] = system: SH-SY5Y human neuroblastoma cells; assay: LDH cytotoxicity assay (cell viability); assay type: cell-based; settings: 24 h, 0.001–10 µM
Method: as §1
Cell viability was assessed with the LDH test. Cells were seeded in 96-well plates and exposed to different compound concentrations (0.001–10 µM). Cells were incubated with compounds at 37 °C in humidified 5% CO2/95% air atmosphere for 24 h. Quillaja bark saponin was used as cellular death control. Then, cell medium was collected and LDH release was evaluated. Pierce^TM LDH-Cytotoxicity Assay Kit (Thermo Fisher Scientific) was used for LDH determination. Absorbance was measured at 490 nm to determine LDH release to the medium. Experiments were carried out in triplicate at least three independent times.

p70 S6 kinase = assay: Western blot, p70 S6 kinase activation (phosphorylated/total); assay type: cell-based, human; settings: SH-SY5Y cells, 24 h; one range given for the three compounds together
Method: as §2, §3

Compound	IC50 [1]	mTOR activation (phospho/total), in words (mTOR)	IC50 [2]	Increase in caspase 3 activity (caspase 3)	IC50 [3]	Cell survival (flow cytometry) [4]	Apoptotic cells (early and late, Annexin V positive) [4]	Cytotoxicity / cell viability (LDH test), in words [5]	p70 S6 phosphorylation (p70 S6 kinase)
CCCCCCC[C@@H]1CC(=O)N[C@@H](C(C)C)C(=O)N[C@H]([C@@H](O)C(C)C)C(=O)N[C@@H](C)C(=O)N[C@H]([C@@H](O)C(C)C)C(=O)N[C@@H](CCC(N)=O)C(=O)N(C)[C@@H]([C@@H](C)CC)C(=O)N[C@H]([C@@H](O)C(N)=O)C(=O)N[C@@H]([C@@H](C)O)C(=O)N2CCC[C@H]2C(=O)N[C@H](CC(C)C)C(=O)N[C@@H]([C@@H](C)O)C(=O)N1 [compound 1, laxaphycin B] (cyclo([dβ3hGly(nHeptyl)]V[dLeu(3S-OH)]A[dLeu(3S-OH)]Q[NMeI][dAsn(3R-OH)]TP[dL]T))	300 nM	did not affect to the protein expression	< 2000 nM	about 20 % of control cells	~1000 nM	around 60 % of control cells	50.4% ± 4.8%	cytotoxic to neuroblastoma cells	
CCCCCCC[C@@H]1CC(=O)N[C@@H](C(C)C)C(=O)N[C@H]([C@@H](O)C(C)C)C(=O)N[C@@H](C)C(=O)N[C@H]([C@@H](O)C(C)C)C(=O)N[C@@H](CCC(N)=O)C(=O)N(C)[C@@H]([C@@H](C)CC)C(=O)N[C@H]([C@@H](O)C(N)=O)C(=O)N[C@@H]([C@@H](C)O)C(=O)N2C[C@H](O)C[C@H]2C(=O)N[C@H](CC(C)C)C(=O)N[C@@H]([C@@H](C)O)C(=O)N1 [compound 2, laxaphycin B3] (cyclo([dβ3hGly(nHeptyl)]V[dLeu(3S-OH)]A[dLeu(3S-OH)]Q[NMeI][dAsn(3R-OH)]T[Hyp][dL]T))	150 nM	did not affect to the protein expression		about 20 % of control cells	~1000 nM	around 60 % of control cells	46.4% ± 4.8%	cytotoxic to neuroblastoma cells	53.5%–78.6%
